Results: ChEMBL document CHEMBL1135548 (J Med Chem, 2002)

Columns and labels:
Test in all cases: biochemical
[1] = molecular target: T1, Adenosine receptor A2a (Homo sapiens, UniProt P29274)
[2] = molecular target: T2, Adenosine receptor A2b (Homo sapiens, UniProt P29275)
T2 sequence (P29275 whole entry): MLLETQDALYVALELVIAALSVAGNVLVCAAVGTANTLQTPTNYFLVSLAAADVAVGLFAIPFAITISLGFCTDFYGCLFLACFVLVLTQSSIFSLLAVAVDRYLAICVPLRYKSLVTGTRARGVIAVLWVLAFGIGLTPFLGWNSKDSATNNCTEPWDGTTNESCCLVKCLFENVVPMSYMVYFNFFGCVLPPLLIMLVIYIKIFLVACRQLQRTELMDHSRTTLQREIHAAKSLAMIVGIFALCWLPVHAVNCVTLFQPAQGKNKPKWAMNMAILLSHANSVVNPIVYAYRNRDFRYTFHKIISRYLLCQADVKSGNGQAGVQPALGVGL
Description: Inhibition of [3H]DPCPX binding to human Adenosine A2B receptor expressed in HEK cells; range 640-1100

[3] = molecular target: T1, Adenosine receptor A2a; remark: listed apart in the source
Description: Inhibition of [3H]CGS-21680 binding to human Adenosine A2a receptor expressed in HEK293 cells; Range 438-749

[4] = molecular target: T3, Adenosine receptor A1 (Homo sapiens, UniProt P30542)
T3 sequence (P30542 whole entry): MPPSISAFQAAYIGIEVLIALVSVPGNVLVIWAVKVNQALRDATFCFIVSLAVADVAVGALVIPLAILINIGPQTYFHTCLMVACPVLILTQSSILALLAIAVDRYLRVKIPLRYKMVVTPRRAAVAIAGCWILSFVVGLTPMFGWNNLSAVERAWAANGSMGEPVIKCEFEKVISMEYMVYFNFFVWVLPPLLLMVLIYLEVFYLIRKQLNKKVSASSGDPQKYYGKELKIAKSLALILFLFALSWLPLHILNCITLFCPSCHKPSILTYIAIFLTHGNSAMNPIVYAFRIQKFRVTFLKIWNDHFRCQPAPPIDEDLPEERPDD

[5] = molecular target: T3, Adenosine receptor A1; remark: listed apart in the source
[6] = molecular target: T2, Adenosine receptor A2b; remark: listed apart in the source
Description: Inhibition of [3H]DPCPX binding to human Adenosine A2B receptor expressed in HEK cells; Range 3580-12400

[7] = molecular target: T1, Adenosine receptor A2a; remark: listed apart in the source
[8] = molecular target: T2, Adenosine receptor A2b; remark: listed apart in the source
[9] = molecular target: T3, Adenosine receptor A1; remark: listed apart in the source
Description: Inhibition of [3H]DPCPX binding to human Adenosine A1 receptor expressed in CHO cells; Range 256-620

[10] = molecular target: T3, Adenosine receptor A1; assay type: cell-based, CHO
Description: Inhibition of [3H]DPCPX binding to human Adenosine A1 receptor expressed in CHO cells

[11] = molecular target: T1, Adenosine receptor A2a; remark: listed apart in the source
Description: Inhibition of [3H]CGS-21680 binding to human Adenosine A2A receptor expressed in HEK293 cells

T1 sequence (P29274 whole entry): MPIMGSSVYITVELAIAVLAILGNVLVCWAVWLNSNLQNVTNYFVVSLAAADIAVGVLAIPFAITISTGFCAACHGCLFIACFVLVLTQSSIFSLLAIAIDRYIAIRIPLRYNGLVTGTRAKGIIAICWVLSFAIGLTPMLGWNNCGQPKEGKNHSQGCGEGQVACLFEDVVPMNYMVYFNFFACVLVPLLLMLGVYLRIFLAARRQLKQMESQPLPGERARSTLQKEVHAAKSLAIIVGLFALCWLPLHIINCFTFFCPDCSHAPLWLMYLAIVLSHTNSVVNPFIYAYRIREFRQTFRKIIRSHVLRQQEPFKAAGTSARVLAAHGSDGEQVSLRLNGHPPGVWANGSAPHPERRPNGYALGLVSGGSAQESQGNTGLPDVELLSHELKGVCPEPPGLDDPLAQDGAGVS

Row | Compound | IC50 [1] [nM] | also measured
1 | CCCCCc1nc2nc[nH]c2c2nc(-c3ccccc3)nn12 | 200 | –
2 | CCCCc1nc2nc[nH]c2c2nc(-c3cccc(Cl)c3)nn12 | 56 | –
3 | CCCCc1nc2nc[nH]c2c2nc(-c3ccc(OCC)cc3)nn12 | 3800 | Ki [2]: 838 nM; Ki [3]: 572 nM; Ki [4]: 413 nM
4 | CCCCc1nc2nc[nH]c2c2nc(-c3ccc(Br)cc3)nn12 | 3300 | –
5 | CCCCCCc1nc2nc[nH]c2c2nc(-c3ccccc3)nn12 | 7800 | –
6 | CCCCc1nc2nc[nH]c2c2nc(-c3ccc(O)cc3)nn12 | 58 | –
7 | CCCCc1nc2[nH]cnc2c2nc(-c3ccc(N(C)C)cc3)nn12 | – | Ki [5]: 1310 nM; Ki [6]: 6660 nM
8 | CCCc1nc2nc[nH]c2c2nc(-c3ccccc3)nn12 | 120 | –
9 | CCCCc1nc2nc[nH]c2c2nc(-c3ccc(F)cc3)nn12 | 510 | –
10 | CCCCc1nc2[nH]cnc2c2nc(-c3cc(OC)c(OC)c(OC)c3)nn12 | 2500 | –
11 | Cc1nc2[nH]cnc2c2nc(-c3ccccc3)nn12 | 550 | –
12 | COc1ccc(-c2csc3nc(=O)cc(N)n23)cc1 | – | Ki [10]: > 10000 nM; Ki [11]: > 10000 nM

Now from value to compound, other results behind:

Row | IC50 [1] [nM] | Compound | also measured
13 | 188 | CCCCc1nc2[nH]cnc2c2nc(-c3cccc(C)c3)nn12 | –
14 | 47 | CCCCc1nc2[nH]cnc2c2nc(Cc3ccccc3)nn12 | –
15 | 67 | CCCCc1nc2[nH]cnc2c2nc(-c3cccc(OC)c3)nn12 | –
16 | 900 | CCCCc1nc2[nH]cnc2c2nc(-c3cccnc3)nn12 | –
17 | 46 | CCCCc1nc2[nH]cnc2c2nc(C)nn12 | –
18 | 210 | CCCCc1nc2[nH]cnc2c2nc(-c3ccco3)nn12 | –
19 | 360 | CCc1nc2[nH]cnc2c2nc(-c3ccccc3)nn12 | –
20 | 1600 | CCCCc1nc2[nH]cnc2c2nc(-c3ccc(OC)cc3)nn12 | Ki [7]: 892 nM; Ki [8]: 1030 nM; Ki [9]: 398 nM
21 | 180 | CCCCc1nc2[nH]cnc2c2nc(-c3ccc(C)cc3)nn12 | –
